# Reference: patent US6426369B1, “Oxethazaine as antimicrobial agent” (Eisai Co., Ltd., priority 1997, dated 2002)
# Test system: H. pylori
# Test: Antimicrobial activity test 6: oxethazaine in combination with an antibiotic (AMPC, CAM, RXM), checker board method
# Format: cell-based, Helicobacter pylori
# Set-up: key to growth of H. pylori: “−” indicates the inhibited growth of H. pylori (presence of antimicrobial activity); “+” indicates the growth of H. pylori (absence of antimicrobial activity)
# Description: The effect of combined use with amoxicillin (AMPC), clarithromycin (CAM) or roxithromycin (RXM) was examined in the same manner as in antimicrobial activity test 1, using the checker board method.
# [1] = combined use with oxethazaine, out of 15 strains (AMPC), 21 strains (CAM), 22 strains (RXM)
smiles,measurement,setting,value
CC[C@H]1OC(=O)[C@H](C)[C@@H](O[C@H]2C[C@@](C)(OC)[C@@H](O)[C@H](C)O2)[C@H](C)[C@@H](O[C@@H]2O[C@H](C)C[C@H](N(C)C)[C@H]2O)[C@](C)(OC)C[C@@H](C)C(=O)[C@H](C)[C@@H](O)[C@]1(C)O [clarithromycin],growth of H. pylori,"89-355, oxethazaine 0 + CAM 0.006 μg/ml",+
same,growth of H. pylori,"89-355, oxethazaine 0 + CAM 0.012 μg/ml",+
same,growth of H. pylori,"89-355, oxethazaine 0 + CAM 0.024 μg/ml",+
same,growth of H. pylori,"89-355, oxethazaine 0 + CAM 0.05 μg/ml",+
same,growth of H. pylori,"89-355, oxethazaine 0 + CAM 0.1 μg/ml",−
same,growth of H. pylori,"89-355, oxethazaine 0 + CAM 0.2 μg/ml",−
same,growth of H. pylori,"89-355, oxethazaine 0 + CAM 0.4 μg/ml",−
same,growth of H. pylori,"89-355, oxethazaine 0 + CAM 0.8 μg/ml",−
same,growth of H. pylori,"89-355, oxethazaine 0 + CAM 1.56 μg/ml",−
same,growth of H. pylori,"89-355, oxethazaine 0 + CAM 3.13 μg/ml",−
same,growth of H. pylori,"89-355, oxethazaine 0 + CAM 6.25 μg/ml",−
same,growth of H. pylori,"89-355, oxethazaine 0 + CAM 12.5 μg/ml",−
same,growth of H. pylori,"89-355, oxethazaine 0 + CAM 25 μg/ml",−
same,growth of H. pylori,"89-355, oxethazaine 0 + CAM 50 μg/ml",−
same,growth of H. pylori,"89-355, oxethazaine 0 + CAM 100 μg/ml",−
same,growth of H. pylori,"89-357, oxethazaine 0 + CAM 0.006 μg/ml",+
same,growth of H. pylori,"89-357, oxethazaine 0 + CAM 0.012 μg/ml",+
same,growth of H. pylori,"89-357, oxethazaine 0 + CAM 0.024 μg/ml",+
same,growth of H. pylori,"89-357, oxethazaine 0 + CAM 0.05 μg/ml",−
same,growth of H. pylori,"89-357, oxethazaine 0 + CAM 0.1 μg/ml",−
same,growth of H. pylori,"89-357, oxethazaine 0 + CAM 0.2 μg/ml",−
same,growth of H. pylori,"89-357, oxethazaine 0 + CAM 0.4 μg/ml",−
same,growth of H. pylori,"89-357, oxethazaine 0 + CAM 0.8 μg/ml",−
same,growth of H. pylori,"89-357, oxethazaine 0 + CAM 1.56 μg/ml",−
same,growth of H. pylori,"89-357, oxethazaine 0 + CAM 3.13 μg/ml",−
same,growth of H. pylori,"89-357, oxethazaine 0 + CAM 6.25 μg/ml",−
same,growth of H. pylori,"89-357, oxethazaine 0 + CAM 12.5 μg/ml",−
same,growth of H. pylori,"89-357, oxethazaine 0 + CAM 25 μg/ml",−
same,growth of H. pylori,"89-357, oxethazaine 0 + CAM 50 μg/ml",−
same,growth of H. pylori,"89-357, oxethazaine 0 + CAM 100 μg/ml",−
same,growth of H. pylori,"90-388, oxethazaine 0 + CAM 0.006 μg/ml",+
same,growth of H. pylori,"90-388, oxethazaine 0 + CAM 0.012 μg/ml",+
same,growth of H. pylori,"90-388, oxethazaine 0 + CAM 0.024 μg/ml",+
same,growth of H. pylori,"90-388, oxethazaine 0 + CAM 0.05 μg/ml",+
same,growth of H. pylori,"90-388, oxethazaine 0 + CAM 0.1 μg/ml",−
same,growth of H. pylori,"90-388, oxethazaine 0 + CAM 0.2 μg/ml",−
same,growth of H. pylori,"90-388, oxethazaine 0 + CAM 0.4 μg/ml",−
same,growth of H. pylori,"90-388, oxethazaine 0 + CAM 0.8 μg/ml",−
same,growth of H. pylori,"90-388, oxethazaine 0 + CAM 1.56 μg/ml",−
same,growth of H. pylori,"90-388, oxethazaine 0 + CAM 3.13 μg/ml",−
same,growth of H. pylori,"90-388, oxethazaine 0 + CAM 6.25 μg/ml",−
same,growth of H. pylori,"90-388, oxethazaine 0 + CAM 12.5 μg/ml",−
same,growth of H. pylori,"90-388, oxethazaine 0 + CAM 25 μg/ml",−
same,growth of H. pylori,"90-388, oxethazaine 0 + CAM 50 μg/ml",−
same,growth of H. pylori,"90-388, oxethazaine 0 + CAM 100 μg/ml",−
same,growth of H. pylori,"90-390, oxethazaine 0 + CAM 0.006 μg/ml",+
same,growth of H. pylori,"90-390, oxethazaine 0 + CAM 0.012 μg/ml",+
same,growth of H. pylori,"90-390, oxethazaine 0 + CAM 0.024 μg/ml",+
same,growth of H. pylori,"90-390, oxethazaine 0 + CAM 0.05 μg/ml",+
same,growth of H. pylori,"90-390, oxethazaine 0 + CAM 0.1 μg/ml",−
same,growth of H. pylori,"90-390, oxethazaine 0 + CAM 0.2 μg/ml",−
same,growth of H. pylori,"90-390, oxethazaine 0 + CAM 0.4 μg/ml",−
same,growth of H. pylori,"90-390, oxethazaine 0 + CAM 0.8 μg/ml",−
same,growth of H. pylori,"90-390, oxethazaine 0 + CAM 1.56 μg/ml",−
same,growth of H. pylori,"90-390, oxethazaine 0 + CAM 3.13 μg/ml",−
same,growth of H. pylori,"90-390, oxethazaine 0 + CAM 6.25 μg/ml",−
same,growth of H. pylori,"90-390, oxethazaine 0 + CAM 12.5 μg/ml",−
same,growth of H. pylori,"90-390, oxethazaine 0 + CAM 25 μg/ml",−
same,growth of H. pylori,"90-390, oxethazaine 0 + CAM 50 μg/ml",−
same,growth of H. pylori,"90-390, oxethazaine 0 + CAM 100 μg/ml",−
same,growth of H. pylori,"EH 12, oxethazaine 0 + CAM 0.006 μg/ml",+
same,growth of H. pylori,"EH 12, oxethazaine 0 + CAM 0.012 μg/ml",+
same,growth of H. pylori,"EH 12, oxethazaine 0 + CAM 0.024 μg/ml",+
same,growth of H. pylori,"EH 12, oxethazaine 0 + CAM 0.05 μg/ml",−
same,growth of H. pylori,"EH 12, oxethazaine 0 + CAM 0.1 μg/ml",−
same,growth of H. pylori,"EH 12, oxethazaine 0 + CAM 0.2 μg/ml",−
same,growth of H. pylori,"EH 12, oxethazaine 0 + CAM 0.4 μg/ml",−
same,growth of H. pylori,"EH 12, oxethazaine 0 + CAM 0.8 μg/ml",−
same,growth of H. pylori,"EH 12, oxethazaine 0 + CAM 1.56 μg/ml",−
same,growth of H. pylori,"EH 12, oxethazaine 0 + CAM 3.13 μg/ml",−
same,growth of H. pylori,"EH 12, oxethazaine 0 + CAM 6.25 μg/ml",−
same,growth of H. pylori,"EH 12, oxethazaine 0 + CAM 12.5 μg/ml",−
same,growth of H. pylori,"EH 12, oxethazaine 0 + CAM 25 μg/ml",−
same,growth of H. pylori,"EH 12, oxethazaine 0 + CAM 50 μg/ml",−
same,growth of H. pylori,"EH 12, oxethazaine 0 + CAM 100 μg/ml",−
same,growth of H. pylori,"EH 13, oxethazaine 0 + CAM 0.006 μg/ml",+
same,growth of H. pylori,"EH 13, oxethazaine 0 + CAM 0.012 μg/ml",+
same,growth of H. pylori,"EH 13, oxethazaine 0 + CAM 0.024 μg/ml",−
same,growth of H. pylori,"EH 13, oxethazaine 0 + CAM 0.05 μg/ml",−
same,growth of H. pylori,"EH 13, oxethazaine 0 + CAM 0.1 μg/ml",−
same,growth of H. pylori,"EH 13, oxethazaine 0 + CAM 0.2 μg/ml",−
same,growth of H. pylori,"EH 13, oxethazaine 0 + CAM 0.4 μg/ml",−
same,growth of H. pylori,"EH 13, oxethazaine 0 + CAM 0.8 μg/ml",−
same,growth of H. pylori,"EH 13, oxethazaine 0 + CAM 1.56 μg/ml",−
same,growth of H. pylori,"EH 13, oxethazaine 0 + CAM 3.13 μg/ml",−
same,growth of H. pylori,"EH 13, oxethazaine 0 + CAM 6.25 μg/ml",−
same,growth of H. pylori,"EH 13, oxethazaine 0 + CAM 12.5 μg/ml",−
same,growth of H. pylori,"EH 13, oxethazaine 0 + CAM 25 μg/ml",−
same,growth of H. pylori,"EH 13, oxethazaine 0 + CAM 50 μg/ml",−
same,growth of H. pylori,"EH 13, oxethazaine 0 + CAM 100 μg/ml",−
same,"additive effect, number of strains",[1],17 strains/
same,"synergism, number of strains",[1],5 strains/
same,growth of H. pylori,"strain 90-397, CAM 0.006 μg/ml, oxethazaine μg/ml: 100, 50, 25, 12.5, 6.25, 3.13, 0",+
same,growth of H. pylori,"strain 90-397, CAM 0.012 μg/ml, oxethazaine μg/ml: 100, 50, 25, 12.5, 6.25, 3.13, 0",+
same,growth of H. pylori,"strain 90-397, CAM 0.024 μg/ml, oxethazaine μg/ml: 100, 50, 25, 12.5, 6.25, 3.13, 0",+
same,growth of H. pylori,"strain 90-397, CAM 0.05 μg/ml, oxethazaine μg/ml: 100, 50, 25, 12.5, 6.25, 3.13, 0",+
same,growth of H. pylori,"strain 90-397, CAM 0.1 μg/ml, oxethazaine μg/ml: 100, 50, 25, 12.5, 6.25, 3.13, 0",+
same,growth of H. pylori,"strain 90-397, CAM 0.2 μg/ml, oxethazaine μg/ml: 100, 50, 25, 12.5, 6.25, 3.13, 0",+
same,growth of H. pylori,"strain 90-397, CAM 12.5 μg/ml, oxethazaine μg/ml: 100, 50, 25, 12.5, 6.25, 3.13, 0",−
same,growth of H. pylori,"strain 90-397, CAM 25 μg/ml, oxethazaine μg/ml: 100, 50, 25, 12.5, 6.25, 3.13, 0",−
same,growth of H. pylori,"strain 90-397, CAM 50 μg/ml, oxethazaine μg/ml: 100, 50, 25, 12.5, 6.25, 3.13, 0",−
same,growth of H. pylori,"strain 90-397, CAM 100 μg/ml, oxethazaine μg/ml: 100, 50, 25, 12.5, 6.25, 3.13, 0",−
